# Data: patent publication US20100041089A1, “IMPROVED METHOD FOR DETECTING CHEMICAL […]” (priority 2006, published 2010)
# System: yeast genes (expressed mRNA)
# Assay: DNA chip measurement of expressed mRNA of yeast genes after culture with a toxic chemical substance
# Format: cell-based, Saccharomyces cerevisiae S288C
# Protocol: Yeast (Saccharomyces cerevisiae S288C (a SUC2mal mel gap2 CUP1)) were cultured at 25° C. on YPD medium (yeast extract 1%, polypeptone 2%, glucose 2%). One of toxic chemical substances was added to the cell at logarithmic growth phase, and the cell was further cultured for two hours. Cell was cultured without any chemical substance in the same condition, and was used as a control. Concentrations of the chemical substances were defined to inhibit the growth of the yeast but not lead to death.
# After the completion of cultivation, the culture was centrifuged to collect the cells. To the cells, sodium acetate buffer (50 mM sodium acetate, 10 mM EDTA, 1% SDS) was added, and the mixture was shaken at 65° C. for five minutes, followed by returning to room temperature, and obtaining the supernatant, which procedure was repeated two times. To the supernatant, ½ amount of a solution of phenol/chloroform (1:1) was added, and the mixture was centrifuged to give a supernatant, an equal amount of chloroform was added, and the mixture was centrifuged to give a supernatant. To the supernatant, an equal amount of isopropanol containing 0.3 M sodium acetate was added, and the mixture was allowed to stand at room temperature for 30 minutes, after which the mixture was centrifuged to give sediment of the whole RNAs. Seventy % ethanol was added to the sediment, and the mixture was again centrifuged to give sediment, which was then dried and dissolved in water. mRNA was isolated from the whole RNAs as followings. In view of the fact that a poly A chain is attached to the 3′ terminus of mRNA, a polynucleotide having a poly T structure which was immobilized on the surface of latex beads was used to trap the mRNA, and then the mRNA was washed and eluted with spine column (Oligotex-dT30<Super>mRNA Purification Kit, Takara). Reverse transcription of the mRNA was conducted with a reverse transcriptase (Super Script II Reverse Transcriptase; catalogue No. 18064-014, GibcoBRL) using fluorescence-labeled nucleotides to give cDNAs that were introduced with Cy3-dUTP or Cy5-dUTP during the reverse transcription.
# The labeled cDNAs were dissolved in TE buffer (10 mM Tris-HCl/1 mM EDTA, pH 8.0), and the solution was dropped on the DNA chip containing the whole genes of yeast (DNA Chip Research Inc. Japan) so that the cDNAs were hybridized on the DNA chip at 65° C. for over 12 hours. The fluoresces intensity of the DNA chip was read with a scanner, and the ratio relative to the fluorescence intensity resulting from the absence of chemical substance was estimated as the following, which is shown in Tables 1 to 9.
# In the Tables, “Intensity” indicated in the rightmost column is a value of the level of expressed mRNA of each gene in control cells as divided by the average level of the expressions of the whole genes. A gene of which mRNA level is lower in control, and is higher in cases of addition of chemical substance, is especially useful in the detection of toxic substances.
# Here, when a ratio of an amount of mRNA expressed in the presence of the chemical substance to an amount of mRNA expressed in the absence of the chemical substance is two or more, then it is considered significant.
compound,measurement,setting,value
"N#Cc1c(Cl)c(Cl)c(Cl)c(C#N)c1Cl [(9), 2,4,5,6-Tetrachloro-1,3-benzenedicarbonitrile]",The level of expressed mRNA in the presence of chemical substance/The level of expressed mRNA in the absence of chemical substance,"yeast gene YFL010C, cultured two hours with substance",3.1
same,The level of expressed mRNA in the presence of chemical substance/The level of expressed mRNA in the absence of chemical substance,"yeast gene YFL014W, DNA repair protein genes, cultured two hours with substance",13.1
same,The level of expressed mRNA in the presence of chemical substance/The level of expressed mRNA in the absence of chemical substance,"yeast gene YFL024C, cultured two hours with substance",0.5
same,The level of expressed mRNA in the presence of chemical substance/The level of expressed mRNA in the absence of chemical substance,"yeast gene YFL030W, metabolism protein genes",24.5
same,The level of expressed mRNA in the presence of chemical substance/The level of expressed mRNA in the absence of chemical substance,"yeast gene YFL032W, cultured two hours with substance",0.5
same,The level of expressed mRNA in the presence of chemical substance/The level of expressed mRNA in the absence of chemical substance,yeast gene YFL056C,162.3
same,The level of expressed mRNA in the presence of chemical substance/The level of expressed mRNA in the absence of chemical substance,"yeast gene YFL056C, cultured for two hours with substance",162.3
same,The level of expressed mRNA in the presence of chemical substance/The level of expressed mRNA in the absence of chemical substance,yeast gene YFL057C,51.8
same,The level of expressed mRNA in the presence of chemical substance/The level of expressed mRNA in the absence of chemical substance,"yeast gene YFL057C, cultured for two hours with substance",51.8
same,The level of expressed mRNA in the presence of chemical substance/The level of expressed mRNA in the absence of chemical substance,"yeast gene YFR020W, cultured two hours with substance",3.7
same,The level of expressed mRNA in the presence of chemical substance/The level of expressed mRNA in the absence of chemical substance,yeast gene YFR030W,24.1
same,The level of expressed mRNA in the presence of chemical substance/The level of expressed mRNA in the absence of chemical substance,"yeast gene YFR042W, cultured two hours with substance",2.8
same,The level of expressed mRNA in the presence of chemical substance/The level of expressed mRNA in the absence of chemical substance,"yeast gene YGL037C, cultured two hours with substance",2.1
same,The level of expressed mRNA in the presence of chemical substance/The level of expressed mRNA in the absence of chemical substance,"yeast gene YGL047W, cultured two hours with substance",4.5
same,The level of expressed mRNA in the presence of chemical substance/The level of expressed mRNA in the absence of chemical substance,"yeast gene YGL053W, cultured two hours with substance",3.3
same,The level of expressed mRNA in the presence of chemical substance/The level of expressed mRNA in the absence of chemical substance,"yeast gene YGL091C, DNA repair protein genes, cultured two hours with substance",10.8
same,The level of expressed mRNA in the presence of chemical substance/The level of expressed mRNA in the absence of chemical substance,"yeast gene YGL098W, cultured two hours with substance",1.2
same,The level of expressed mRNA in the presence of chemical substance/The level of expressed mRNA in the absence of chemical substance,yeast gene YGL104C,4.6
same,The level of expressed mRNA in the presence of chemical substance/The level of expressed mRNA in the absence of chemical substance,"yeast gene YGL121C, cultured two hours with substance",7.0
same,The level of expressed mRNA in the presence of chemical substance/The level of expressed mRNA in the absence of chemical substance,"yeast gene YGL136C, cultured two hours with substance",1.3
same,The level of expressed mRNA in the presence of chemical substance/The level of expressed mRNA in the absence of chemical substance,"yeast gene YGL227W, cultured two hours with substance",2.4
same,The level of expressed mRNA in the presence of chemical substance/The level of expressed mRNA in the absence of chemical substance,"yeast gene YGR010W, cultured two hours with substance",13.6
same,The level of expressed mRNA in the presence of chemical substance/The level of expressed mRNA in the absence of chemical substance,yeast gene YGR043C,10.9
same,The level of expressed mRNA in the presence of chemical substance/The level of expressed mRNA in the absence of chemical substance,"yeast gene YGR043C, cultured for two hours with substance",10.9
same,The level of expressed mRNA in the presence of chemical substance/The level of expressed mRNA in the absence of chemical substance,"yeast gene YGR101W, cultured two hours with substance",4.0
same,The level of expressed mRNA in the presence of chemical substance/The level of expressed mRNA in the absence of chemical substance,"yeast gene YGR110W, cultured two hours with substance",6.4
same,The level of expressed mRNA in the presence of chemical substance/The level of expressed mRNA in the absence of chemical substance,"yeast gene YGR130C, cultured two hours with substance",2.0
same,The level of expressed mRNA in the presence of chemical substance/The level of expressed mRNA in the absence of chemical substance,"yeast gene YGR134W, cultured two hours with substance",2.4
same,The level of expressed mRNA in the presence of chemical substance/The level of expressed mRNA in the absence of chemical substance,"yeast gene YGR142W, cultured two hours with substance",36.8
same,The level of expressed mRNA in the presence of chemical substance/The level of expressed mRNA in the absence of chemical substance,"yeast gene YGR146C, cultured two hours with substance",0.8
same,The level of expressed mRNA in the presence of chemical substance/The level of expressed mRNA in the absence of chemical substance,"yeast gene YGR154C, cultured two hours with substance",25.2
same,The level of expressed mRNA in the presence of chemical substance/The level of expressed mRNA in the absence of chemical substance,yeast gene YGR197C (transport facilitation protein gene),16.7
same,The level of expressed mRNA in the presence of chemical substance/The level of expressed mRNA in the absence of chemical substance,"yeast gene YGR284C, cultured two hours with substance",4.3
same,The level of expressed mRNA in the presence of chemical substance/The level of expressed mRNA in the absence of chemical substance,"yeast gene YHR016C, cultured two hours with substance",2.8
same,The level of expressed mRNA in the presence of chemical substance/The level of expressed mRNA in the absence of chemical substance,"yeast gene YHR029C, cultured two hours with substance",13.6
same,The level of expressed mRNA in the presence of chemical substance/The level of expressed mRNA in the absence of chemical substance,"yeast gene YHR138C, cultured two hours with substance",5.3
same,The level of expressed mRNA in the presence of chemical substance/The level of expressed mRNA in the absence of chemical substance,"yeast gene YHR199C, cultured two hours with substance",8.6
same,The level of expressed mRNA in the presence of chemical substance/The level of expressed mRNA in the absence of chemical substance,"yeast gene YHR209W, cultured two hours with substance",2.9
same,The level of expressed mRNA in the presence of chemical substance/The level of expressed mRNA in the absence of chemical substance,"yeast gene YIL023C, cultured two hours with substance",3.5
same,The level of expressed mRNA in the presence of chemical substance/The level of expressed mRNA in the absence of chemical substance,"yeast gene YIL024C, cultured two hours with substance",2.2
same,The level of expressed mRNA in the presence of chemical substance/The level of expressed mRNA in the absence of chemical substance,"yeast gene YIL041W, cultured two hours with substance",1.8
same,The level of expressed mRNA in the presence of chemical substance/The level of expressed mRNA in the absence of chemical substance,"yeast gene YIL087C, cultured two hours with substance",2.4
same,The level of expressed mRNA in the presence of chemical substance/The level of expressed mRNA in the absence of chemical substance,"yeast gene YIL097W, cultured two hours with substance",4.9
same,The level of expressed mRNA in the presence of chemical substance/The level of expressed mRNA in the absence of chemical substance,"yeast gene YIL117C, cultured two hours with substance",2.3
same,The level of expressed mRNA in the presence of chemical substance/The level of expressed mRNA in the absence of chemical substance,"yeast gene YIL143C, DNA repair protein genes, cultured two hours with substance",7.1
same,The level of expressed mRNA in the presence of chemical substance/The level of expressed mRNA in the absence of chemical substance,"yeast gene YIL153W, DNA repair protein genes, cultured two hours with substance",4.3
same,The level of expressed mRNA in the presence of chemical substance/The level of expressed mRNA in the absence of chemical substance,"yeast gene YJL020C, cultured two hours with substance",1.3
same,The level of expressed mRNA in the presence of chemical substance/The level of expressed mRNA in the absence of chemical substance,"yeast gene YJL057C, cultured two hours with substance",7.3
same,The level of expressed mRNA in the presence of chemical substance/The level of expressed mRNA in the absence of chemical substance,"yeast gene YJL066C, cultured two hours with substance",2.0
same,The level of expressed mRNA in the presence of chemical substance/The level of expressed mRNA in the absence of chemical substance,"yeast gene YJL082W, cultured two hours with substance",1.4
